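Interpolation was linear, between the two tested concentrations surrounding the appropriate level; five concentrations were tested over 48 hours in 96-well plates. Abbreviation: GI50, concentration required for 50% inhibition of growth.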 Calls of active or inactive are those of the source. Cut-off read from the data, not from the text of the source: active = GI50 up to about 1.1 µM and inactive = higher.
Key:
Test in all cases: NCI tumour cell line growth inhibition, 48 h
SW-620 = test system: SW-620
A498 = test system: A498
CCRF-CEM = test system: CCRF-CEM
IGROV-1 = test system: IGROV-1
HOP-62 = test system: HOP-62
MOLT-4 = test system: MOLT-4
DMS-114 = test system: DMS-114
UACC-62 = test system: UACC-62
LOX IMVI = test system: LOX IMVI
Malme-3M = test system: Malme-3M
RPMI-8226 = test system: RPMI-8226
NCI-H460 = test system: NCI-H460
EKVX = test system: EKVX
COLO 205 = test system: COLO 205
SNB-19 = test system: SNB-19
XF498 = test system: XF498
OVCAR-8 = test system: OVCAR-8
HCT-116 = test system: HCT-116
UO-31 = test system: UO-31
SK-OV-3 = test system: SK-OV-3
HOP-18 = test system: HOP-18
HL-60 = test system: HL-60
U-251 = test system: U-251
SK-MEL-2 = test system: SK-MEL-2
HT-29 = test system: HT-29
SK-MEL-5 = test system: SK-MEL-5
SNB-78 = test system: SNB-78
KM12 = test system: KM12
RXF 631 = test system: RXF 631
KM-20L2 = test system: KM-20L2
RXF 393 = test system: RXF 393
SNB-75 = test system: SNB-75
K562 = test system: K562
SK-MEL-28 = test system: SK-MEL-28
HCT-15 = test system: HCT-15
M19-MEL = test system: M19-MEL
DMS-273 = test system: DMS-273
NCI-H23 = test system: NCI-H23
M14 = test system: M14
OVCAR-5 = test system: OVCAR-5
SN12C = test system: SN12C
NCI-H226 = test system: NCI-H226
NCI-H522 = test system: NCI-H522
OVCAR-4 = test system: OVCAR-4
DLD-1 = test system: DLD-1
SF-539 = test system: SF-539
SF-295 = test system: SF-295
LXFL 529 = test system: LXFL 529
ACHN = test system: ACHN
786-0 = test system: 786-0
A549 = test system: A549
TK-10 = test system: TK-10
OVCAR-3 = test system: OVCAR-3
SF-268 = test system: SF-268
UACC-257 = test system: UACC-257
CAKI-1 = test system: CAKI-1
HOP-92 = test system: HOP-92
HCC 2998 = test system: HCC 2998

O=c1[nH]cc(C(F)(C(F)(F)F)C(F)(F)F)c(=O)[nH]1
GI50 (SW-620): > 100 µM (inactive) | GI50 (A498): > 100 µM (inactive) | GI50 (CCRF-CEM): > 100 µM (inactive) | GI50 (IGROV-1): > 100 µM (inactive) | GI50 (HOP-62): > 100 µM (inactive) | GI50 (MOLT-4): > 100 µM (inactive) | GI50 (DMS-114): > 100 µM (inactive) | GI50 (UACC-62): > 100 µM (inactive) | GI50 (LOX IMVI): > 100 µM (inactive) | GI50 (Malme-3M): > 100 µM (inactive) | GI50 (RPMI-8226): > 100 µM (inactive) | GI50 (NCI-H460): > 100 µM (inactive) | GI50 (EKVX): > 100 µM (inactive) | GI50 (COLO 205): > 100 µM (inactive) | GI50 (SNB-19): > 100 µM (inactive) | GI50 (XF498): > 100 µM (inactive) | GI50 (OVCAR-8): > 100 µM (inactive) | GI50 (HCT-116): > 100 µM (inactive) | GI50 (UO-31): > 100 µM (inactive) | GI50 (SK-OV-3): > 100 µM (inactive) | GI50 (HOP-18): > 100 µM (inactive) | GI50 (HL-60): > 100 µM (inactive) | GI50 (U-251): > 100 µM (inactive) | GI50 (SK-MEL-2): > 100 µM (inactive) | GI50 (HT-29): > 100 µM (inactive) | GI50 (SK-MEL-5): > 100 µM (inactive) | GI50 (SNB-78): > 100 µM (inactive) | GI50 (KM12): > 100 µM (inactive) | GI50 (RXF 631): > 100 µM (inactive) | GI50 (KM-20L2): > 100 µM (inactive) | GI50 (RXF 393): > 100 µM (inactive) | GI50 (SNB-75): > 100 µM (inactive) | GI50 (K562): > 100 µM (inactive) | GI50 (SK-MEL-28): > 100 µM (inactive) | GI50 (HCT-15): > 100 µM | GI50 (M19-MEL): > 100 µM (inactive) | GI50 (DMS-273): > 100 µM (inactive) | GI50 (NCI-H23): > 100 µM (inactive) | GI50 (M14): > 100 µM (inactive) | GI50 (OVCAR-5): > 100 µM (inactive) | GI50 (SN12C): > 100 µM (inactive) | GI50 (NCI-H226): > 100 µM (inactive) | GI50 (NCI-H522): > 100 µM (inactive) | GI50 (OVCAR-4): > 100 µM (inactive) | GI50 (DLD-1): > 100 µM (inactive) | GI50 (SF-539): > 100 µM (inactive) | GI50 (SF-295): > 100 µM (inactive) | GI50 (LXFL 529): > 100 µM (inactive) | GI50 (ACHN): > 100 µM (inactive) | GI50 (786-0): > 100 µM (inactive) | GI50 (A549): > 100 µM (inactive) | GI50 (TK-10): > 100 µM (inactive) | GI50 (OVCAR-3): > 100 µM (inactive) | GI50 (SF-268): > 100 µM (inactive) | GI50 (UACC-257): > 100 µM (inactive) | GI50 (CAKI-1): > 100 µM (inactive) | GI50 (HOP-92): > 100 µM (inactive)

CCc1c(OC(C)=O)c2c(NC3OC(COC(C)=O)C(OC(C)=O)C(OC(C)=O)C3OC(C)=O)nc(SC)nc2oc1=O (stereo unspecified)
GI50 (SW-620): > 100 µM (inactive) | GI50 (A498): > 100 µM (inactive) | GI50 (CCRF-CEM): > 100 µM (inactive) | GI50 (IGROV-1): > 100 µM (inactive) | GI50 (HOP-62): > 100 µM (inactive) | GI50 (MOLT-4): > 100 µM (inactive) | GI50 (DMS-114): > 100 µM (inactive) | GI50 (UACC-62): > 100 µM (inactive) | GI50 (LOX IMVI): > 100 µM (inactive) | GI50 (Malme-3M): > 100 µM (inactive) | GI50 (RPMI-8226): > 100 µM (inactive) | GI50 (NCI-H460): > 100 µM (inactive) | GI50 (EKVX): > 100 µM (inactive) | GI50 (COLO 205): > 100 µM (inactive) | GI50 (SNB-19): > 100 µM (inactive) | GI50 (XF498): > 100 µM (inactive) | GI50 (OVCAR-8): > 100 µM (inactive) | GI50 (HCT-116): > 100 µM (inactive) | GI50 (UO-31): > 100 µM (inactive) | GI50 (SK-OV-3): > 100 µM (inactive) | GI50 (HOP-18): > 100 µM (inactive) | GI50 (HL-60): > 100 µM (inactive) | GI50 (U-251): > 100 µM (inactive) | GI50 (SK-MEL-2): > 100 µM (inactive) | GI50 (HT-29): > 100 µM (inactive) | GI50 (SK-MEL-5): > 100 µM (inactive) | GI50 (SNB-78): > 100 µM (inactive) | GI50 (KM12): > 100 µM (inactive) | GI50 (RXF 631): > 100 µM (inactive) | GI50 (KM-20L2): > 100 µM (inactive) | GI50 (RXF 393): > 100 µM (inactive) | GI50 (SNB-75): > 100 µM (inactive) | GI50 (K562): > 100 µM (inactive) | GI50 (HCT-15): > 100 µM | GI50 (M19-MEL): > 100 µM (inactive) | GI50 (NCI-H23): > 100 µM (inactive) | GI50 (HCC 2998): > 100 µM (inactive) | GI50 (M14): > 100 µM (inactive) | GI50 (OVCAR-5): > 100 µM (inactive) | GI50 (SN12C): > 100 µM (inactive) | GI50 (NCI-H226): > 100 µM (inactive) | GI50 (OVCAR-4): > 100 µM (inactive) | GI50 (DLD-1): > 100 µM (inactive) | GI50 (SF-539): > 100 µM (inactive) | GI50 (SF-295): > 100 µM (inactive) | GI50 (LXFL 529): > 100 µM (inactive) | GI50 (ACHN): > 100 µM (inactive) | GI50 (786-0): > 100 µM (inactive) | GI50 (A549): > 100 µM (inactive) | GI50 (TK-10): > 100 µM (inactive) | GI50 (OVCAR-3): > 100 µM (inactive) | GI50 (UACC-257): > 100 µM (inactive) | GI50 (CAKI-1): > 100 µM (inactive) | GI50 (HOP-92): > 100 µM (inactive)

Source: ChEMBL document CHEMBL1201862, “PubChem BioAssay data set” (2004)
